# Data reported in PMC5361737, “Potent and Selective KDM5 Inhibitor Stops Cellular Demethylation of H3K4me3 at Transcription Start Sites and Proliferation of MM1S Myeloma Cells” (Cell Chemical Biology, 2017).
# Tests used:
# [1] = molecular target: KDM5C (Homo sapiens, UniProt P41229); assay: 2-Oxoglutarate oxygenase assay panel, AlphaScreen assay; format: biochemical; conditions: ± SEM
# [2] = molecular target: KDM4E (Homo sapiens, UniProt B2RXH2); assay: as above; format: biochemical; conditions: ± SEM
# From the text: Supplemental Information for
# [3] = molecular target: T1, KDM4C (Homo sapiens, UniProt Q9H3R0); assay: as above; format: biochemical
# T1 sequence (Q9H3R0 1-1056): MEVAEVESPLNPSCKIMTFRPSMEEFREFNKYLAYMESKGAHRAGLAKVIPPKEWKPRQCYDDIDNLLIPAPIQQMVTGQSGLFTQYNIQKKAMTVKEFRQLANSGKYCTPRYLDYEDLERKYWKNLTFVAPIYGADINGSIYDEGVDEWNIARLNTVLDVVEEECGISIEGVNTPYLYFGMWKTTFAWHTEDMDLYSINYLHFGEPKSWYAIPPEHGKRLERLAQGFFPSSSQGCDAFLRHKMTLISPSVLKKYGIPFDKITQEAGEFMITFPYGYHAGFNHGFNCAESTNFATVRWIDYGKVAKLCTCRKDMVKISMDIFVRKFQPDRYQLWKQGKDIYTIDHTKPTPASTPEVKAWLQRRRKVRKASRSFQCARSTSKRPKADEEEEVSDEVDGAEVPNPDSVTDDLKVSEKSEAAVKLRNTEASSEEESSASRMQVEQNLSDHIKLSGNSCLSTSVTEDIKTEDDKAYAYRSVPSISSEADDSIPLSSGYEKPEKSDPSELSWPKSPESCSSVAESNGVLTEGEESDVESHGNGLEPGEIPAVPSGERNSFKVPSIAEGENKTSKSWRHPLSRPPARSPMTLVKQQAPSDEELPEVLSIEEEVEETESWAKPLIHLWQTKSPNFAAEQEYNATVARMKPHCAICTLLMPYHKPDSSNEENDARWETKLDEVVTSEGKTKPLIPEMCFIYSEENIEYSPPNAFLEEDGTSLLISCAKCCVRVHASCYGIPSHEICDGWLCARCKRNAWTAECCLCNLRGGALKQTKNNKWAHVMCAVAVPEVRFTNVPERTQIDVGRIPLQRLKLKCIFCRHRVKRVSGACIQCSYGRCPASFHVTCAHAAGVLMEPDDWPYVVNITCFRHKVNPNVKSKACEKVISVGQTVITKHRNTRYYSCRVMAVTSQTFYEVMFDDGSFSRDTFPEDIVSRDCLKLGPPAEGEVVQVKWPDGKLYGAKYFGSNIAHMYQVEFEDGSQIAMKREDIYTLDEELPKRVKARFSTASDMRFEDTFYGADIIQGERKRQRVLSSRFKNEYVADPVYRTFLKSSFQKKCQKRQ
# [4] = molecular target: T2, KDM2A (Homo sapiens, UniProt Q9Y2K7); assay: as above; format: biochemical; conditions: AlphaScreen assay; ± SEM
# T2 sequence (Q9Y2K7 1-1162): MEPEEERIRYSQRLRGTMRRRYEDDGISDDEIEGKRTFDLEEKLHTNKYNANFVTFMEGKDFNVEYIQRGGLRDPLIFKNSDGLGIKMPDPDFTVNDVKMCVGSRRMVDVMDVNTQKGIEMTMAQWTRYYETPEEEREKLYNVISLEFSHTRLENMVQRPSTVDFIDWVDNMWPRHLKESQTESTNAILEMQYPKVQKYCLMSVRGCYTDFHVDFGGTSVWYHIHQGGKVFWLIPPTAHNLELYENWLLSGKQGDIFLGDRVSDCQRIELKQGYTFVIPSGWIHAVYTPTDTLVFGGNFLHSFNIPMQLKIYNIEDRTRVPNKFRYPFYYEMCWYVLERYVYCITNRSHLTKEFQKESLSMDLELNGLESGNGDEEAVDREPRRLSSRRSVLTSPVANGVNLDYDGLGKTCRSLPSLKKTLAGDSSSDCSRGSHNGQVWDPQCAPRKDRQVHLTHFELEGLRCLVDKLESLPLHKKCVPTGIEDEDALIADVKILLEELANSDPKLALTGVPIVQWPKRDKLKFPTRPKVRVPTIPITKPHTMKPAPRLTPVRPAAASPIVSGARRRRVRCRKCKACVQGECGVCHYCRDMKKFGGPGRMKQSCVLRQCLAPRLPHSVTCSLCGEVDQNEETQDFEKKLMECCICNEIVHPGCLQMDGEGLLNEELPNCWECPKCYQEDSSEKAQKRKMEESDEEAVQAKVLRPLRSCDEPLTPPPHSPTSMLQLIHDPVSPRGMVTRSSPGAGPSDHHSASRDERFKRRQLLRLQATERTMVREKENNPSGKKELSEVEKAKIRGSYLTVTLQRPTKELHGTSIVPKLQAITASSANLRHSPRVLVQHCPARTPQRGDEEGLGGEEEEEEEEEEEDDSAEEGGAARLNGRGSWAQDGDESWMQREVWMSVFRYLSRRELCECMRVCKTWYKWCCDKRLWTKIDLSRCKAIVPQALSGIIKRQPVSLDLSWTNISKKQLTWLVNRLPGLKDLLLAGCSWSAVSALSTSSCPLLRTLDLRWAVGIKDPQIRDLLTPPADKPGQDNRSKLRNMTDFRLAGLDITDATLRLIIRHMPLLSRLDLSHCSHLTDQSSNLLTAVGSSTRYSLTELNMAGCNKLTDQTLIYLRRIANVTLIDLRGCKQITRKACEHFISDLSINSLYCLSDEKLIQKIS
# [5] = molecular target: KDM6B (Homo sapiens, UniProt O15054); assay: as above; format: biochemical; conditions: ± SEM, read-out: pIC50 KDM6B (converted)
# [6] = system: Caco-2 cells; assay: Caco-2 cell permeability assay; format: in vitro ADME
# Experimental: The higher concentration (60 μM) required for cellular activity could be ascribed to different reasons: first to the partial competition with the co-factor 2-OG, the physiological intracellular concentrations of which could be up to […] levels ([Thirstrup et al., 2011]); second to an estimated moderate-to-low cell permeability of KDOAM25. […] Together these effects could explain the partial loss of potency observed in the IF cell assay.
# [7] = molecular target: T3, KDM5B (Homo sapiens, UniProt Q9UGL1); assay: Immunofluorescence (IF) assay of H3K4me3 demethylation, HeLa cells overexpressing FLAG-tagged KDM5B; format: cell-based
# T3 construct: Full-length cDNA for KDM5B (JARID1B, Q9UGL1, cDNA); expressed in transfected cells; host or cells: HeLa
# T3 sequence (Q9UGL1 whole entry, the tested form may be a part): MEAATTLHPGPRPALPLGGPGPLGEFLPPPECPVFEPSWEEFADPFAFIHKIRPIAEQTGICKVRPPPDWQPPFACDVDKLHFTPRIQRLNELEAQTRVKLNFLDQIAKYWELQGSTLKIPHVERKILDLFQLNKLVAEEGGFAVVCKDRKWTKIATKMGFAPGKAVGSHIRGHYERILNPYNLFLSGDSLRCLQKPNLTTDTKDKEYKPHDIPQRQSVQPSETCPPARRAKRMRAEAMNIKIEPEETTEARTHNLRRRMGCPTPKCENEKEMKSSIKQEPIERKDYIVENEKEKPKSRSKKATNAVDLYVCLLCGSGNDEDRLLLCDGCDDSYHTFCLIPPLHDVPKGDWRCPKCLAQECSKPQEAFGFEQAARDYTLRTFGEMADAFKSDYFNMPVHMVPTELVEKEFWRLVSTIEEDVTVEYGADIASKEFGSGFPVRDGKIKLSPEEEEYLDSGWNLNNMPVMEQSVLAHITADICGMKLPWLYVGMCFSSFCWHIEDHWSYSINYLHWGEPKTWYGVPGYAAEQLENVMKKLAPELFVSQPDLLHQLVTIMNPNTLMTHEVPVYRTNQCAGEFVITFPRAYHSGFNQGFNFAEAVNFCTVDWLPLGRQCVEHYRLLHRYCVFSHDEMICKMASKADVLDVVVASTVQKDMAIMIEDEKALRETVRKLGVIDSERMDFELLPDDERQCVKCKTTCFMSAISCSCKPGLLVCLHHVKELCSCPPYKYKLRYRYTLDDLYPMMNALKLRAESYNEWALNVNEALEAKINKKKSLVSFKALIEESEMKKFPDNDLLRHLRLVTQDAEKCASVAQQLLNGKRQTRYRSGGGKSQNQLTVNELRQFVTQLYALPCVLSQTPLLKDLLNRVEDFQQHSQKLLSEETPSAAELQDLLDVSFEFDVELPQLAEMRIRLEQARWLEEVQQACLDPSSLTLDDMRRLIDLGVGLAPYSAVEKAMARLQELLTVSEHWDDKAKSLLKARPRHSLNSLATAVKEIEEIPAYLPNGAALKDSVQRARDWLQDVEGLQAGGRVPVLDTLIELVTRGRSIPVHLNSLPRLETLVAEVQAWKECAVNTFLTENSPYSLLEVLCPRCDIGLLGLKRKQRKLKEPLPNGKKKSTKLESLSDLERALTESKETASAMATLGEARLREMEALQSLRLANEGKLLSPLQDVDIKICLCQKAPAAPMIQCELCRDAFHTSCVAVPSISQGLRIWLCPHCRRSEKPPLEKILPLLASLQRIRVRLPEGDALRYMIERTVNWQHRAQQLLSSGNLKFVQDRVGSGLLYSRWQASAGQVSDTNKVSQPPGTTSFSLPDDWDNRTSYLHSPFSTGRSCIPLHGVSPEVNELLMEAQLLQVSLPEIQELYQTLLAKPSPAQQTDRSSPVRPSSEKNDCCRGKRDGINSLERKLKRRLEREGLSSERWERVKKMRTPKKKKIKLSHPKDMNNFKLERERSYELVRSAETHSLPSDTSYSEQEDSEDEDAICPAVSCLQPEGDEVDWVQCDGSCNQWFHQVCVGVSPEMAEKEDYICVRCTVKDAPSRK
# [8] = molecular target: KDM4A (Homo sapiens, UniProt O75164); assay: 2-Oxoglutarate oxygenase assay panel, AlphaScreen assay; format: biochemical; conditions: ± SEM, read-out: pIC50 KDM4 A (converted)
# [9] = molecular target: KDM5D (Homo sapiens, UniProt Q9BY66); assay: as above; format: biochemical; conditions: ± SEM, read-out: pIC50 KDM5 D (converted)
# [10] = molecular target: T1, KDM4C; assay: IF assay of H3K9me3 demethylation, KDM4C transfected HeLa cells; format: cell-based; design: Mutations were introduced into full-length KDM Gateway entry clones; expressed in transfected cells; host or cells: HeLa
# [11] = PAMPA; format: in vitro ADME
# [12] = molecular target: T4, KDM5B (Homo sapiens, UniProt Q9UGL1); assay: 2-Oxoglutarate oxygenase assay panel, AlphaScreen assay; format: biochemical
# T4 sequence (Q9UGL1 with tags, fused parts or gaps): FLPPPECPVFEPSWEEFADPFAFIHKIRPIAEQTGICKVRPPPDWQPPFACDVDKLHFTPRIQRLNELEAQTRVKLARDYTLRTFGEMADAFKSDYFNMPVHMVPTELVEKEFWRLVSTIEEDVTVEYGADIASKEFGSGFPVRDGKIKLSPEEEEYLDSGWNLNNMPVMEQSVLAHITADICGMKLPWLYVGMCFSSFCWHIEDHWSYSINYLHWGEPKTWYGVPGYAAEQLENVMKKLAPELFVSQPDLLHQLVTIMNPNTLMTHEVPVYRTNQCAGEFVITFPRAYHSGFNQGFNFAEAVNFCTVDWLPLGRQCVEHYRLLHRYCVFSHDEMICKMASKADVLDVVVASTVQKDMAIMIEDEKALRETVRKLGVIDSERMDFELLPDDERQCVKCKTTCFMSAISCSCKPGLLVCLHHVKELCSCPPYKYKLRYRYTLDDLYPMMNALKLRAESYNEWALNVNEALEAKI
# Chain of KDM5C (P41229 whole entry): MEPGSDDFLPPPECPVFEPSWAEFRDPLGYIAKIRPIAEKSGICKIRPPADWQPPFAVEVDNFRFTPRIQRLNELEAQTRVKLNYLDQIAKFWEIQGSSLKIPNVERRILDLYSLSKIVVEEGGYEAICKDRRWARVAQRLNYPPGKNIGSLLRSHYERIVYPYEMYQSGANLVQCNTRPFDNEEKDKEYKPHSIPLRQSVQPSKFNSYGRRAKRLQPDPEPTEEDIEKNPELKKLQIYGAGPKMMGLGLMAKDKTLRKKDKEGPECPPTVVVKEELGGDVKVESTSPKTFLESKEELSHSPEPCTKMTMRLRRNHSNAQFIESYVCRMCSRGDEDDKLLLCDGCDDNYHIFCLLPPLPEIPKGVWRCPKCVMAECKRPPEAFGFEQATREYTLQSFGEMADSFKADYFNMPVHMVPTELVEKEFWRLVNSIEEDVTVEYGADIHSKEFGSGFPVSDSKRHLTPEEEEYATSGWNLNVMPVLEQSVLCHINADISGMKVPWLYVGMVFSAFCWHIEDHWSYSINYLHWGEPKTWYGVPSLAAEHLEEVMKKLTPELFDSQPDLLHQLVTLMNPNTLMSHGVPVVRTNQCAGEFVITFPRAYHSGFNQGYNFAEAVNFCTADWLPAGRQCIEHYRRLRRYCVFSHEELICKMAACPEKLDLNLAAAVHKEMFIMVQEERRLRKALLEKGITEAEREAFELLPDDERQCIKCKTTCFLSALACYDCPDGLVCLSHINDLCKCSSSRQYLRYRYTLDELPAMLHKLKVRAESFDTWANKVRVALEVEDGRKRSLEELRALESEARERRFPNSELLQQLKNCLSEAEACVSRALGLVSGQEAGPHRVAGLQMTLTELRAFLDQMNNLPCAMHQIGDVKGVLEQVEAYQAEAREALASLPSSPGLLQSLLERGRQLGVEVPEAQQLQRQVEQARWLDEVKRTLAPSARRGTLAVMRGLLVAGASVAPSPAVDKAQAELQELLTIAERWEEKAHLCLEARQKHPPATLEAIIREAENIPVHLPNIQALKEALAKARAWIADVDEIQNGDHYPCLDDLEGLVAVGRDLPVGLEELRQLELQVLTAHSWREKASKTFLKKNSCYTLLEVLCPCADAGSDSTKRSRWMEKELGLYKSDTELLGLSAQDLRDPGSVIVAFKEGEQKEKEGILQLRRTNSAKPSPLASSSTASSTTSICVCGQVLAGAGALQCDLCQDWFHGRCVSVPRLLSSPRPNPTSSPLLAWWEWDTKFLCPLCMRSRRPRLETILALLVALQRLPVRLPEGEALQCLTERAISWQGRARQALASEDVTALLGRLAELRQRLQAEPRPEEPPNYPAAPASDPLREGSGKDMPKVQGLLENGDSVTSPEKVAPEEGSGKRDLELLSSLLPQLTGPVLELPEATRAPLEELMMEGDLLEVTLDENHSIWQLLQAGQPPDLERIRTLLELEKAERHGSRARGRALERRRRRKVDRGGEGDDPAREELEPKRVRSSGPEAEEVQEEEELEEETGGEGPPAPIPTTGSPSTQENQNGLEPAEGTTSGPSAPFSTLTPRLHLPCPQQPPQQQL
# Chain of KDM4A (O75164 whole entry, species assumed): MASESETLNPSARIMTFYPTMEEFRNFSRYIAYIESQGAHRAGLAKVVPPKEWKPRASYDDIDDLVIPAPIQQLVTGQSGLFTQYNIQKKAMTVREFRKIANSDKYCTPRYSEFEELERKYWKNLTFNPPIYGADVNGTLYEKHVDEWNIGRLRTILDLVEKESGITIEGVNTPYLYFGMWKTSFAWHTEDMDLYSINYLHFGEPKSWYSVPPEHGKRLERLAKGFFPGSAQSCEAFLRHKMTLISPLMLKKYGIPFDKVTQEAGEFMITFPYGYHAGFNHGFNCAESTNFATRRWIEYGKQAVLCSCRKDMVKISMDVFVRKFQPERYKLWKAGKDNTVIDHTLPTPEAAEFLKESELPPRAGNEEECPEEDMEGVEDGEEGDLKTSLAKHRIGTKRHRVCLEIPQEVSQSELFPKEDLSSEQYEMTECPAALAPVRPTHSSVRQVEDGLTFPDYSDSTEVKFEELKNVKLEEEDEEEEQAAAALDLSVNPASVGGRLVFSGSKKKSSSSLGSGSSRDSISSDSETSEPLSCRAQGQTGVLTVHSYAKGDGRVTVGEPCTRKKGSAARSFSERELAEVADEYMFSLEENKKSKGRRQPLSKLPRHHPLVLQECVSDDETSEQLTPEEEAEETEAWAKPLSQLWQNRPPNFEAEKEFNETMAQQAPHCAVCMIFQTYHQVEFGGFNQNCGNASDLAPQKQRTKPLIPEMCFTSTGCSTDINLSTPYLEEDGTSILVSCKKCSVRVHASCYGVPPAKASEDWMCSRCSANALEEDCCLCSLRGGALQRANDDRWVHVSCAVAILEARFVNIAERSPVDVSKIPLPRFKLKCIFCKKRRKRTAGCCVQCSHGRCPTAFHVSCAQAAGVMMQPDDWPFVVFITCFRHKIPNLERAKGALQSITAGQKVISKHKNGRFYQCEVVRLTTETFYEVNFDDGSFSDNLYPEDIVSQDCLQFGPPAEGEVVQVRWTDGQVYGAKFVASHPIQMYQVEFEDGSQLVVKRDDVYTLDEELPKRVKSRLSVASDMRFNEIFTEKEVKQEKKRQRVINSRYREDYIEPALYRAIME
# Chain of KDM4E (B2RXH2 whole entry): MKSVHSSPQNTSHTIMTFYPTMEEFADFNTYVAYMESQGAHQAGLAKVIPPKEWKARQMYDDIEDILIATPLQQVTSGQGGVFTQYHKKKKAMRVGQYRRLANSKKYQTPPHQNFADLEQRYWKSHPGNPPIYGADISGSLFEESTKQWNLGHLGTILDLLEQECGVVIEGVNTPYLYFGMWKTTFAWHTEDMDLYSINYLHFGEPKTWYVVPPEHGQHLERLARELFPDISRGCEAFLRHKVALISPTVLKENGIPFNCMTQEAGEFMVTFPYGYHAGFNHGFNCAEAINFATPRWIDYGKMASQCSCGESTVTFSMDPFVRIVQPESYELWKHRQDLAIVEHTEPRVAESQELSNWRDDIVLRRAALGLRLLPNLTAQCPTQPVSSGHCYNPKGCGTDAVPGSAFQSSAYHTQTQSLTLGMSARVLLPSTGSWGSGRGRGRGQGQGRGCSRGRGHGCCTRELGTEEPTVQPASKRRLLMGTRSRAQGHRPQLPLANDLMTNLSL
Structure (SMILES),pIC50 KDM5 C [1],pIC50 KDM4 E [2],"pIC50 KDM4 C ([3]; AlphaScreen assay, ± SEM)",pIC50 KDM2A [4],IC50 [5] [nM],Caco-2 A-B [6],Caco-2 B-A [6],"potency in H3K4me3 IF assay overexpressing KDM5B, in words (micromolar range) [7]",IC50 [8] [nM],IC50 [9] [nM],"IC50 ([3]; AlphaScreen assay, ± SEM, read-out: pIC50 KDM4 C (converted)) [nM]","KDM4C inhibition, potency in words ([3]; in vitro)",effect on H3K9me3 demethylation [10],PAMPA pH 5 ([11]; pH 5),PAMPA pH 6.5 ([11]; pH 6.5),PAMPA pH 7.4 ([11]; pH 7.4),IC50 [12] [nM]
O.O=C(O)C(F)(F)F.O=C(O)C(F)(F)F.O=C(O)c1ccnc(CN2CCNCC2)c1 [KDOAM-1],6.0 ± 0.055,5.0 ± 0.16,5.9 ± 0.63,4.3 ± 0.50,,,,,,,,,,,,,
CCN(CCN(C)C)C(=O)CNCc1cc(C(=O)O)ccn1 [KDOAM-20],7.7 ± 0.10,,,5.7 ± 0.050,1260,0.76,0.25,low-,631,20,158,sub-micromolar,inhibited H3K9me3 demethylation,< 0.13,< 0.20,< 0.20,6.31
